Measurements from patent US4016272A, “Anthelmintic thiodiphenylamine cupric chloride complex salt” (priority 1975, dated 1977).

Legend:
[1] = tested on: helminth infestation diseases; test: Helminthicide action in laboratory and field conditions on farm animals; assay type: in vivo, sheep, cows, and other farm animals
Source text: The helminthicide action has been studied in laboratory and field conditions on sheep, cows, and other farm animals of different age and having various helminth infestation diseases. The course of treatment comprises a single oral administration of the preparation in spring and a repeated single administration in autumn. The preparation efficiency is 95 to 100% for the cured animals.

[2] = meat, milk, and wool
Source text: The known preparations are efficient only in respect to the imaginal forms of certain helminth infestation diseases. The novel preparation based on thiodiphenylamine cupric chloride complex salt is not toxic and is convinient in use.

[3] = Lethal dose / toxicity in farm animals; assay type: in vivo; design: lethal dose LD50 / LD100: unit not given here

**Q.** Which results are given for “complex salt of thiodiphenylamine cupric chloride”?
**A.** efficiency for curing various helminth infestation diseases in pre-imaginal and imaginal forms ([1]; pre-imaginal and imaginal forms): highly efficient for curing various helminth infestation diseases in pre-imaginal and imaginal forms; preparation efficiency for the cured animals ([1]; single oral administration in spring and repeated single administration in autumn): 95 to 100%; productivity of farm animals [2]: enhances productivity of farm animals; LD100 ([3]; all varieties of farm animals): 1,200; lethal dose LD50 ([3]; all varieties of farm animals): 1,000; toxicity ([3]; in vivo): not toxic
